Results reported in patent publication US9623048B2, “Human hepatocyte-like cells and uses thereof” (SHANGHAI INSTITUTES FOR BIOLOGICAL SCIENCES, CHINESE …, priority 2013, dated 2017).
Read-outs that look alike come from different tables or passages of the source.

Tests used:
[1] = test system: CYP450 enzymes in hiHep cells; assay: CYP induction assay in hiHep cells (q-PCR); conditions: 48 hours inducer treatment
Description: Total RNA was extracted to measure the induction of CYP enzymes responding to chemical inducers by q-PCR. Total RNA of cells without inducer treatment were used to measure the expression of CYP450 genes and nuclear receptor genes.
Next, assays were carried out to analyze whether hiHep cells were responsive to CYP inducers.
Transcriptional activation of CYP450 enzymes and many other drug metabolism enzymes are mediated by nuclear receptors including AHR, CAR, and PXR.

hiHep cells [2] = assay: Sandwich culture biliary excretion assay in hiHep cells; conditions: sandwich cultured hiHep cells, 10 minutes incubation
Description: To prepare sandwich culture, 1×10^5 hiHep cells, primary human hepatocytes, and HFF were seeded in collagen I coated 24 well plate. 200 μL 1.5 mg/ml freshly prepared neutralized collagen gel solution were then poured on cells. After solidification, cells were cultured in Williams' E medium supplemented with 5% FBS, 10 μM TCA and 2 μM cAMP for a further 4 days.
To analyze the biliary excretion index, cells were washed once and then incubate in HBSS buffer or Calcium free HBSS buffer at 37° C. […] Cumulative uptake was stopped by washing with cold HBSS buffer for three times. […] The amount of CLF was quantified by measuring fluorescence at 492 nm and 536 nm with a Synergy 4 microplate reader (Biotek, Winooski, USA). Biliary Excretion Index (BEI) was calculated as: BEI=(AHBSS−AHBSS([…]))/AHBSS×100%.
Membrane transporter-mediated biliary excretion is another important function of hepatocytes for clearance of xenobiotics. Drug clearance through biliary excretion is a critically evaluated property in the selection of drug candidates.

hiHep cells [3] = assay: CYP metabolism assay in hiHep cells (LC-MS/MS of metabolic products)
Description: (§1) For the measurement of CYP enzyme activities, cells were induced with different compounds for certain drug metabolisms. The supernatants were collected for measurement of metabolized compounds by LC-MS/MS (Agilent 1200 HPLC and ABI 4000 mass-spectrometer).
(§2) Freshly thawed primary human hepatocytes were directly used as a positive control. Cells were incubated with substrate in 200 μl incubation medium at different concentrations for 3 hours at 37° C. To stop the reaction, […] cold methanol was added and centrifuged. The supernatants were collected for measurement of metabolized compounds by LC-MS/MS (Agilent 1200 HPLC and ABI 4000 mass-spectrometer). Total cell protein amount was used to normalize the data. Substrates and metabolized products used for standard curves were commercially purchased.
Freshly thawed primary human hepatocytes were directly used as a positive control.

MSC-hiHep cells = assay: CYP metabolism assay in AD-MSC-derived hiHep cells
Description: as §2

hiHep^LT cells = assay: CYP metabolism assay in hiHep^LT cells; conditions: passage 10
Description: as §1, §2

Cc1ccc2cc3c(ccc4ccccc43)c3c2c1CC3 [3-methylcholanthrene]
induction of mRNA expression levels of CYP1A2, CYP2A6, CYP2B6, CYP2C8 and CYP2C9 [1]: markedly induced

[D-Pen2,5]-enkephalin hydrate [DPDPE]
biliary excretion indices (BEI) (hiHep cells [2]): remarkable

O=c1ccc2ccccc2o1 [coumarin]
CYP enzyme-dependent metabolism (hiHep cells [3]): showed CYP enzyme-dependent metabolism

CCC1(c2ccccc2)C(=O)NC(=O)NC1=O [phenobarbital]
induction of CYP3A4 mRNA [1]: relatively low but significant level
induction of mRNA expression levels of CYP1A2, CYP2A6, CYP2B6, CYP2C8 and CYP2C9 [1]: markedly induced

COc1ccc2c(c1)[C@]13CCCC[C@@H]1[C@H](C2)N(C)CC3 [dextromethorphan]
products of metabolism (MSC-hiHep cells): not detected
products of metabolism (hiHep^LT cells): not detected
CYP enzyme-dependent metabolism (hiHep cells [3]; hiHep cells after 48 hours CYP induction, 3 hours incubation): showed CYP enzyme-dependent metabolism

CC(CCC(=O)NC(CCCCNC(=S)Nc1ccc(-c2c3ccc(=O)cc-3oc3cc(O)ccc23)c(C(=O)O)c1)C(=O)O)C1CCC2C3C(O)CC4CC(O)CCC4(C)C3CC(O)C12C (stereo not drawn) [CLF, cholyl-lysyl-fluorescein]
biliary excretion indices (BEI) (hiHep cells [2]): remarkable
